Assay results as given in ChEMBL document CHEMBL1155701, “Two novel cyclic peptides with antifungal activity from the cyanobacterium Tolypothrix byssoidea (EAWAG 195)” (J Nat Prod, 2001).
In brackets after ≈: the same amount, converted by molar mass. Non-standard residues stand in square brackets, D forms with d. Residues, ends and D or L forms follow the SMILES beside them. Dhb = C/C=C(\N)C(=O)O

Tested on: Candida albicans
Assay: Antifungal activity against Candida albicans ATCC 26790
Type: functional, organism-based

MIC [µg/mL]	IC50 [µg/mL]	SMILES
32 (≈ 21.8 µM)	–	C/C=C1\NC(=O)[C@H](Cc2ccccc2)NC(=O)[C@H]([C@@H](C)CC)NC(=O)[C@H]([C@@H](C)CC)NC(=O)[C@H]([C@@H](C)O)NC(=O)[C@@H](CC(C)C)NC(=O)[C@H](CCCNC(=N)N)NC(=O)[C@H]2CCCN2C(=O)[C@H](C(C)C)NC(=O)[C@H](C(C)C)NC(=O)[C@H]([C@@H](C)O)NC(=O)[C@H]([C@@H](C)OC(C)=O)NC(=O)[C@H](C(C)C)NC1=O
64 (≈ 42.9 µM)	–	C/C=C1\NC(=O)[C@H](C(C)C)NC(=O)[C@H](Cc2ccccc2)NC(=O)[C@H](C(C)C)NC(=O)[C@H](C(C)C)NC(=O)[C@H](C(C)C)NC(=O)[C@H]([C@@H](C)O)NC(=O)[C@H]([C@@H](C)CC)NC(=O)[C@H]([C@@H](C)O)NC(=O)[C@H](C(C)C)NC(=O)[C@H](CCSC)NC(=O)[C@H](Cc2ccc(O)cc2)NC(=O)[C@H](CCCNC(=N)N)NC1=O (cyclo([Dhb]RYMVTITVVVFV))
–	8 (≈ 19.2 µM)	Clc1ccc(COC(Cn2ccnc2)c2ccc(Cl)cc2Cl)c(Cl)c1 (stereo not drawn) [MICONAZOLE]
